Measured values taken from patent US8551999B2, “Heterocyclic compound and pharmaceutical composition thereof” (Otsuka Pharmaceutical Co., Ltd., priority 2007, dated 2013).

Row | Structure (SMILES) | melting point
1 | CC(C)CN1CCN(C(=O)c2cc3cc(Oc4ccc(N(C)C(=O)c5ccc(C(F)(F)F)cc5)cn4)ccc3n2C)CC1 [Example 562, N-{6-[2-(4-Isobutylpiperazine-1-carbonyl)-1-methyl-1H-indol-5-yl-oxy]pyridin-3-yl}-N-methyl-4-trifluoromethylbenzamide] | 163 to 164 °C
2 | COc1ccc(CN2CCN(C(=O)c3cc4cc(Oc5ccc(N(C)C(=O)c6ccc(C(F)(F)F)cc6O)cn5)ccc4n3C)CC2)cc1.O=C(O)C(=O)O [Example 592, 2-Hydroxy-N-(6-{2-[4-(4-methoxybenzyl)piperazine-1-carbonyl]-1-methyl-1H-indol-5-yloxy}pyridin-3-yl)-N-methyl-4-trifluoromethyl-benzamide oxalate] | 171 to 173 °C
3 | Br.Br.COc1ccc(CN2CCN(C(=O)c3cc4cc(Oc5ccc(NC(=O)c6ccc(Cl)c(Cl)c6)cn5)ccc4n3C)CC2)nc1 [Example 388, 3,4-Dichloro-N-(6-{2-[4-(5-methoxypyridin-2-ylmethyl)piperazine-1-carbonyl]-1-methyl-1H-indol-5-yloxy}pyridin-3-yl)benzamide dihydrobromide] | 223 to 225 °C
4 | Br.Cn1c(C(=O)N2CCN(Cc3ccc(OCC(F)F)cc3)CC2)cc2ccc(Oc3ccc(NC(=O)c4ccc(Cl)c(Cl)c4)cn3)cc21 [Example 268, 3,4-Dichloro-N-[6-(2-{4-[4-(2,2-difluoroethoxy)benzyl]piperazine-1-carbonyl}-1-methyl-1H-indol-6-yloxy)pyridin-3-yl]benzamide hydrobromide] | 221.5 to 222.3 °C
5 | Cc1cc(CN2CCN(C(=O)c3cc4cc(Oc5ccc(N(C)C(=O)c6ccc(C(F)(F)F)cc6)cn5)ccc4n3C)CC2)no1.O=C(O)/C=C\C(=O)O [Example 568, N-Methyl-N-(6-{1-methyl-2-[4-(5-methylisoxazol-3-ylmethyl)-piperazine-1-carbonyl]-1H-indol-5-yloxy}pyridin-3-yl)-4-tri-fluoromethylbenzamide maleate] | 112 to 115 °C
6 | CN(c1ccc(Oc2ccc3cc(C(=O)N4CCN(Cc5ccc(OCC6CC6)cc5)CC4)n(C)c3c2)nc1)S(=O)(=O)c1ccc(Cl)c(Cl)c1 [Example 514, 3,4-Dichloro-N-(6-{2-[4-(4-cyclopropylmethoxybenzyl)piperazine-1-carbonyl]-1-methyl-1H-indol-6-yloxy}pyridin-3-yl)-N-methyl-benzenesulfonamide] | 194.1 to 195.8 °C
7 | CN(C(=O)c1ccc(C(F)(F)F)cc1O)c1ccc(Oc2ccc3c(c2)cc(C(=O)N2CCN(Cc4ccc(OC(F)F)cc4)CC2)n3C)nc1.O=C(O)C(=O)O [Example 594, N-(6-{2-[4-(4-Difluoromethoxybenzyl)piperazine-1-carbonyl]-1-methyl-1H-indol-5-yloxy}pyridin-3-yl)-2-hydroxy-N-methyl-4-tri-fluoromethylbenzamide oxalate] | 155 to 160 °C
8 | CCOc1ccc(CN2CCN(C(=O)c3cc4cc(Oc5ncc(NC(=O)c6ccc(Cl)c(Cl)c6)cn5)ccc4n3C)CC2)cc1 [Example 384, 3,4-Dichloro-N-(2-{2-[4-(4-ethoxybenzyl)piperazine-1-carbonyl]-1-methyl-1H-indol-5-yloxy}pyrimidin-5-yl)benzamide] | 156 to 157 °C
9 | Br.Cn1c(C(=O)N2CCN(Cc3ccc4c(c3)OCO4)CC2)cc2cc(Oc3ccc(NC(=O)c4ccc(C(F)(F)F)cc4C(F)(F)F)cn3)ccc21 [Example 9, N-{6-[2-(4-Benzo[1,3]dioxol-5-ylmethylpiperazine-1-carbonyl)-1-methyl-1H-indol-5-yloxy]pyridin-3-yl}-2,4-bistrifluoromethyl-benzamide hydrobromide] | 258 to 261 °C (dec.)
10 | Br.Br.Cn1c(C(=O)N2CCN(Cc3cccnc3)CC2)cc2cc(Oc3ccc(NC(=O)c4ccc(C(F)(F)F)cc4)cn3)ccc21 [Example 558, N-{6-[1-Methyl-2-(4-pyridin-3-ylmethylpiperazine-1-carbonyl)-1H-indol-5-yloxy]pyridin-3-yl}-4-trifluoromethylbenzamide dihydrobromide] | 201 to 204 °C
11 | Br.CCCOc1ccc(CN2CCN(C(=O)c3cc4ccc(Oc5ccc(NC(=O)c6ccc(Cl)c(Cl)c6)cn5)cc4n3C)CC2)cc1 [Example 256, 3,4-Dichloro-N-(6-{1-methyl-2-[4-(4-propoxybenzyl)piperazine-1-carbonyl]-1H-indol-6-yloxy}pyridin-3-yl)benzamide hydrobromide] | 239.2 to 240.4 °C
12 | COc1ccc(CN2CCN(C(=O)c3cc4cc(Oc5ccc(N(C)C(=O)c6ccc(-n7cccc7)nc6)cn5)ccc4n3C)CC2)cc1.O=C(O)C(=O)O.O=C(O)C(=O)O [Example 227, N-(6-{2-[4-(4-Methoxybenzyl)piperazine-1-carbonyl]-1-methyl-1H-indol-5-yloxy}pyridin-3-yl)-N-methyl-6-pyrrol-1-ylnicotinamide dioxalate] | 185 to 187 °C
13 | CN(c1ccc(Oc2ccc3c(c2)cc(C(=O)N2CCN(Cc4ccc(OCC(F)(F)F)cc4)CC2)n3C)nc1)S(=O)(=O)c1ccc(C(F)(F)F)cc1 [Example 527, N-Methyl-N-[6-(1-methyl-2-{4-[4-(2,2,2-trifluoroethoxy)benzyl]-piperazine-1-carbonyl}-1H-indol-5-yloxy)pyridin-3-yl]-4-tri-fluoromethylbenzenesulfonamide] | 191.8 to 194.4 °C
14 | Br.Br.Cn1c(C(=O)N2CCN(Cc3ccncc3)CC2)cc2cc(Oc3ccc(NC(=O)c4ccc(C(F)(F)F)cc4)cn3)ccc21 [Example 550, N-{6-[1-Methyl-2-(4-pyridin-4-ylmethylpiperazine-1-carbonyl)-1H-indol-5-yloxy]pyridin-3-yl}-4-trifluoromethylbenzamide dihydrobromide] | 211 to 215 °C (dec.)
15 | Br.CC(C)Oc1ccc(CN2CCN(C(=O)c3cc4ccc(Oc5ccc(NC(=O)c6ccc(Cl)c(Cl)c6)cn5)cc4n3C)CC2)cc1 [Example 255, 3,4-Dichloro-N-(6-{2-[4-(4-isopropoxybenzyl)piperazine-1-carbonyl]-1-methyl-1H-indol-6-yloxy}pyridin-3-yl)benzamide hydrobromide] | 239.7 to 243.5 °C
16 | Br.Br.CN(C(=O)c1ccc(C(F)(F)F)cc1)c1ccc(Oc2ccc3c(c2)cc(C(=O)N2CCN(Cc4ccncc4)CC2)n3C)nc1 [Example 548, N-Methyl-N-{6-[1-methyl-2-(4-pyridin-4-ylmethylpiperazine-1-carbonyl)-1H-indol-5-yloxy]pyridin-3-yl}-4-trifluoromethyl-benzamide dihydrobromide] | 196 to 198 °C
17 | Br.CN(C(=O)c1ccc(C(F)(F)F)cc1)c1ccc(Oc2ccc3c(c2)cc(C(=O)N2CCN(Cc4ccc(F)cc4)CC2)n3C)nc1 [Example 549, N-(6-{2-[4-(4-Fluorobenzyl)piperazine-1-carbonyl]-1-methyl-1H-indol-5-yloxy}pyridin-3-yl)-N-methyl-4-trifluoromethylbenzamide hydrobromide] | 218 to 220 °C
18 | Br.CN(C(=O)c1ccc(C(F)(F)F)cc1)c1ccc(Oc2ccc3c(c2)cc(C(=O)N2CCN(Cc4ccc(OC(F)(F)F)cc4)CC2)n3C)nc1 [Example 343, N-Methyl-N-(6-{1-methyl-2-[4-(4-trifluoromethoxybenzyl)-piperazine-1-carbonyl]-1H-indol-5-yloxy}pyridin-3-yl)-4-tri-fluoromethylbenzamide hydrobromide] | 213 to 216 °C
19 | Cl.Cn1c(C(=O)N2CCN(Cc3ccc(OC(CF)CF)cc3)CC2)cc2ccc(Oc3ccc(NC(=O)c4ccc(C(F)(F)F)cc4F)cn3)cc21 | 267.3 to 267.7 °C
20 | Br.COc1ccc(CN2CCN(C(=O)c3cc4cc(Oc5ccc(N(C)C(=O)c6ccc(C(F)(F)F)c(C)c6)cn5)ccc4n3C)CC2)cc1 [Example 20, N-(6-{2-[4-(4-Methoxybenzyl)piperazine-1-carbonyl]-1-methyl-1H-indol-5-yloxy}pyridin-3-yl)-3,N-dimethyl-4-trifluoromethyl-benzamide hydrobromide] | 199 to 202 °C
21 | Br.Cn1c(C(=O)N2CCN(Cc3ccc(C#N)cc3)CC2)cc2cc(Oc3ccc(NC(=O)c4ccc(Cl)c(Cl)c4)cn3)ccc21 [Example 556, 3,4-Dichloro-N-(6-{2-[4-(4-cyanobenzyl)piperazine-1-carbonyl]-1-methyl-1H-indol-5-yloxy}pyridin-3-yl)benzamide hydrobromide] | 267 to 272 °C (dec.)
22 | Br.Br.Cc1nc(Oc2ccc3c(c2)cc(C(=O)N2CCN(Cc4ccncc4)CC2)n3C)ccc1NC(=O)c1ccc(C(F)(F)F)cc1 [Example 565, N-{2-Methyl-6-[1-methyl-2-(4-pyridin-4-ylmethylpiperazine-1-carbonyl)-1H-indol-5-yloxy]pyridin-3-yl}-4-trifluoromethyl-benzamide dihydrobromide] | 223 to 225 °C (dec.)
23 | Br.Cn1c(C(=O)N2CCN(Cc3ccc(OCCF)cc3)CC2)cc2ccc(Oc3ccc(NC(=O)c4ccc(Cl)c(Cl)c4)cn3)cc21 [Example 464, 3,4-Dichloro-N-[6-(2-{4-[4-(2-fluoroethoxy)benzyl]piperazine-1-carbonyl}-1-methyl-1H-indol-6-yloxy)pyridin-3-yl]benzamide hydrobromide] | 232.4 to 234.2 °C
24 | Br.Cc1ccc(S(=O)(=O)N(C)c2ccc(Oc3ccc4cc(C(=O)N5CCN(Cc6ccc(OCCC(C)C)cc6)CC5)n(C)c4c3)nc2)cc1 [Example 533, 4,N-Dimethyl-N-[6-(1-methyl-2-{4-[4-(3-methylbutoxy)benzyl]-piperazine-1-carbonyl}-1H-indol-6-yloxy)pyridin-3-yl]benzene-sulfonamide hydrobromide] | 236.5 to 238.3 °C (dec.)
25 | CN(c1ccc(Oc2ccc3cc(C(=O)N4CCN(Cc5ccc(OCC(F)(F)F)cc5)CC4)n(C)c3c2)nc1)S(=O)(=O)c1ccc(Cl)c(Cl)c1 [Example 68, 3,4-Dichloro-N-methyl-N-[6-(1-methyl-2-{4-[4-(2,2,2-trifluoro-ethoxy)benzyl]piperazine-1-carbonyl}-1H-indol-6-yloxy)pyridin-3-yl]benzenesulfonamide] | 165.9 to 167.2 °C
26 | Br.Cn1c(C(=O)N2CCN(Cc3ccc(C(F)(F)F)cc3)CC2)cc2ccc(Oc3ccc(NC(=O)c4ccc(Cl)c(Cl)c4)cn3)cc21 [Example 262, 3,4-Dichloro-N-(6-{1-methyl-2-[4-(4-trifluoromethylbenzyl)-piperazine-1-carbonyl]-1H-indol-6-yloxy}pyridin-3-yl)benzamide hydrobromide] | 259.4 to 260.7 °C
